Results taken from ChEMBL document CHEMBL4507291 (2021).

Columns and labels:
[1] = biological target: T1, Serine/threonine-protein kinase DCLK2 (Homo sapiens) (UniProt Q8N568); assay: DCAMKL2 (DCK2) Kinase screen; settings: Compound concentration 1.0 uM
T1 sequence (whole entry): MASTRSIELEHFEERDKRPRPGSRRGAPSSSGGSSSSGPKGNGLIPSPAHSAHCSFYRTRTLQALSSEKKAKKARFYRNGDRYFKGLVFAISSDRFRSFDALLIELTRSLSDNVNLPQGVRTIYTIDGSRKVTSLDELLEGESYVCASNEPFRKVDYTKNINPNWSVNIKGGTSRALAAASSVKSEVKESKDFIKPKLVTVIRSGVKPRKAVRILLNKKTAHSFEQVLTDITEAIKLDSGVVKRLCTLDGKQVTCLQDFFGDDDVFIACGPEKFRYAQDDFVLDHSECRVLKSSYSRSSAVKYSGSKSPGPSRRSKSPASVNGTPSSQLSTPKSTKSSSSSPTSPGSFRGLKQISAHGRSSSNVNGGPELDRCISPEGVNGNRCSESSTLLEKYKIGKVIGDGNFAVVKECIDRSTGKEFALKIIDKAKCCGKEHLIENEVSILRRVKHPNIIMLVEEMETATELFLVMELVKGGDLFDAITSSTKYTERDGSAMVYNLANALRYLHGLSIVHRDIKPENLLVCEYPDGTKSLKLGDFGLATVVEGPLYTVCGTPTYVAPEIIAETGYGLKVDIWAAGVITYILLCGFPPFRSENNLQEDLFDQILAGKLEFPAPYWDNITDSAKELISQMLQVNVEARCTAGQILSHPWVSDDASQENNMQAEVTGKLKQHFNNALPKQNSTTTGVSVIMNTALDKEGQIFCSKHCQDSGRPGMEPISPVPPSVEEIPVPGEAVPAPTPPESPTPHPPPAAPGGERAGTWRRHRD

[2] = biological target: Mitogen-activated protein kinase 8 (Homo sapiens) (UniProt P45983); assay: MAPK8 (JNK1) Kinase screen; settings: Compound concentration 1.0 uM
[3] = biological target: Mitogen-activated protein kinase 9 (Homo sapiens) (UniProt P45984); assay: MAPK9 (JNK2) Kinase screen; settings: Compound concentration 1.0 uM
[4] = biological target: Serine/threonine-protein kinase pim-2 (Homo sapiens) (UniProt Q9P1W9); assay: PIM2 Kinase screen; settings: Compound concentration 1.0 uM
[5] = biological target: Protein kinase C eta type (Homo sapiens) (UniProt P24723); assay: PRKCH (PKC eta) Kinase screen; settings: Compound concentration 1.0 uM
[6] = biological target: Proto-oncogene tyrosine-protein kinase Src (Homo sapiens) (UniProt P12931); assay: SRC Kinase screen; settings: Compound concentration 1.0 uM
[7] = biological target: T2, Tyrosine-protein kinase receptor TYRO3 (Homo sapiens) (UniProt Q06418); assay: TYRO3 (RSE) Kinase screen; settings: Compound concentration 1.0 uM
T2 sequence (whole entry): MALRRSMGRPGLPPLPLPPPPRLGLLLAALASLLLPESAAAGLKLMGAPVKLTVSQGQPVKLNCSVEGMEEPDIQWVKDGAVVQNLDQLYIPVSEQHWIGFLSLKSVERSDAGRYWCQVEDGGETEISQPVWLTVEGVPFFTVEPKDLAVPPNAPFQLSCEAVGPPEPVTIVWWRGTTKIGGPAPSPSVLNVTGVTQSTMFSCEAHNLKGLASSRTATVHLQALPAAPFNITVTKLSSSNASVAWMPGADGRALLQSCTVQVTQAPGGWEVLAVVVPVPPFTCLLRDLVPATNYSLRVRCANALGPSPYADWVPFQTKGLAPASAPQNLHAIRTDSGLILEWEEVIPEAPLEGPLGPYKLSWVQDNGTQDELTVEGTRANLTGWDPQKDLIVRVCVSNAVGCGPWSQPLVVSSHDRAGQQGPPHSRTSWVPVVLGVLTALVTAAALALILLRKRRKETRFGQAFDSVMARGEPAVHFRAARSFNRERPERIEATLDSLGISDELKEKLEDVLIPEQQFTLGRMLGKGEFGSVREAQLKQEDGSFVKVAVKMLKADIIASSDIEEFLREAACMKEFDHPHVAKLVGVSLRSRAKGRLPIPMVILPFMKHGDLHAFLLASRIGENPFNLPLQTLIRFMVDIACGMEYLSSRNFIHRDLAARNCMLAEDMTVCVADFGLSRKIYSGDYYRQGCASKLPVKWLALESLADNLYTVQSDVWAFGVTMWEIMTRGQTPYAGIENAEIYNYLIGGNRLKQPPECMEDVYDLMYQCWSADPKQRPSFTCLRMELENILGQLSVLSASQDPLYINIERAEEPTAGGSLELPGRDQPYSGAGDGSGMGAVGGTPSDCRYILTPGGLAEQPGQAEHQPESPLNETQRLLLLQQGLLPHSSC

[8] = organism: Bos taurus; assay: Protein Serine/Threonine Kinase, PKA, Non-Selective Eurofins-Panlabs enzyme assay; assay type: protein-complex assay; design: substrate with concentration 370 µg/mL Histone Type III-S, incubation time 15 min, incubation temperature 25 °C; settings: Compound concentration 10.0 uM
[9] = biological target: T3, Alpha-1A adrenergic receptor (Homo sapiens) (UniProt P35348); settings: Rattus norvegicus; Compound concentration 10.0 uM
T3 sequence (whole entry): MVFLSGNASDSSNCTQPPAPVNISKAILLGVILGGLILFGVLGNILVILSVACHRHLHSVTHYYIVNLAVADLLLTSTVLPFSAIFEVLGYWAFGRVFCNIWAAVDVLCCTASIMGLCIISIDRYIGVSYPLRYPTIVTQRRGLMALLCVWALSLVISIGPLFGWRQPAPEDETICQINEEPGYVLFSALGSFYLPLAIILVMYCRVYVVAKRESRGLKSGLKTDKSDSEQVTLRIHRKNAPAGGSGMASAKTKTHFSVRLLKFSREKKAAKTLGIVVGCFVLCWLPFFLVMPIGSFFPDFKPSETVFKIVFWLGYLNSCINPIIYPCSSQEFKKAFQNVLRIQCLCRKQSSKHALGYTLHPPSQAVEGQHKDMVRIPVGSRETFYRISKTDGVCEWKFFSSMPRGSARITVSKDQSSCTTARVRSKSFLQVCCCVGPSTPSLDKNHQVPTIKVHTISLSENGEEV

Measured: inhibition

Chain of Proto-oncogene tyrosine-protein kinase Src (Homo sapiens) (P12931 2-536 limits assumed): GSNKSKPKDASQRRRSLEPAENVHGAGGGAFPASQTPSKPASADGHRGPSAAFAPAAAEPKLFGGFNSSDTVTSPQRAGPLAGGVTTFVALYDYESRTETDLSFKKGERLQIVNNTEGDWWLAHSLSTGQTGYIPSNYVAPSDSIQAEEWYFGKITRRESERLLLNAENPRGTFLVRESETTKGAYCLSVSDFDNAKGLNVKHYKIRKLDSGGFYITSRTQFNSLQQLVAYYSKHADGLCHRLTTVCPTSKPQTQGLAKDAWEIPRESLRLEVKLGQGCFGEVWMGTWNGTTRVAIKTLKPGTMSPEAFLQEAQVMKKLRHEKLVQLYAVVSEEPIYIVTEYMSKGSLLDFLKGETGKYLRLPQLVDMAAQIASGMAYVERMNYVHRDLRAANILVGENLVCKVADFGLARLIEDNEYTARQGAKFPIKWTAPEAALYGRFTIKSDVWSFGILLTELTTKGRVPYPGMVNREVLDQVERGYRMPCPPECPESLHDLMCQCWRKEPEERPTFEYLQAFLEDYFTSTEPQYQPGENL
Chain of Mitogen-activated protein kinase 9 (Homo sapiens) (P45984 whole entry, looked up): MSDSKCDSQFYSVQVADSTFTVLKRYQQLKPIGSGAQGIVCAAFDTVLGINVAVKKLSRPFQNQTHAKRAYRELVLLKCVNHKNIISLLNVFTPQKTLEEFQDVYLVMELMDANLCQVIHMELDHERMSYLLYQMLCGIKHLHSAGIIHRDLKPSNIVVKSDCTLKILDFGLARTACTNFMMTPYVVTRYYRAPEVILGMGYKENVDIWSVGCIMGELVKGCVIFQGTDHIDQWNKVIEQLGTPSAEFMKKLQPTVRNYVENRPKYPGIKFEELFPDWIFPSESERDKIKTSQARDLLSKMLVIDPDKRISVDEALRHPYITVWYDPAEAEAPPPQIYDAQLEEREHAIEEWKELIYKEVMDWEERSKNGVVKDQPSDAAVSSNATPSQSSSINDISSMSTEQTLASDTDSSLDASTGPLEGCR
Chain of Mitogen-activated protein kinase 8 (Homo sapiens) (P45983 whole entry): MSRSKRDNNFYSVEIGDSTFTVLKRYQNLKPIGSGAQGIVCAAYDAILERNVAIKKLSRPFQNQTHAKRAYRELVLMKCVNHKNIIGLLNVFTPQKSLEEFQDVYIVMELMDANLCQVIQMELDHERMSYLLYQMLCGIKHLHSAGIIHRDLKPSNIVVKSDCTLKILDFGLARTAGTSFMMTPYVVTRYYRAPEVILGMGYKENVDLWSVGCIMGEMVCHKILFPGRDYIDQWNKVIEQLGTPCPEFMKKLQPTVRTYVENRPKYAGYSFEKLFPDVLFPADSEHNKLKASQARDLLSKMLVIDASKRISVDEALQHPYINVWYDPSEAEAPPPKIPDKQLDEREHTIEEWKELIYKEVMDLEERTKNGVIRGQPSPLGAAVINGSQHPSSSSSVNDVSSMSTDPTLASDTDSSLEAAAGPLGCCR
Chain of Serine/threonine-protein kinase pim-2 (Homo sapiens) (Q9P1W9 whole entry, looked up): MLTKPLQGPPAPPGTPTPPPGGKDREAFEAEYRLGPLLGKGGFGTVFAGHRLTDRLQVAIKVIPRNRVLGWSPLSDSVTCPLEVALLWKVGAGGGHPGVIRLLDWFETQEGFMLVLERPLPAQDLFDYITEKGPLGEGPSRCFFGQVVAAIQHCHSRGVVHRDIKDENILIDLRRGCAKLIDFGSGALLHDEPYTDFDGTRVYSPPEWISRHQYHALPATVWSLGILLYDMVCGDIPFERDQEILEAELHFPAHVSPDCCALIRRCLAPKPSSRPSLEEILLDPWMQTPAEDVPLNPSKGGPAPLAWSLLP
Chain of Protein kinase C eta type (Homo sapiens) (P24723 whole entry): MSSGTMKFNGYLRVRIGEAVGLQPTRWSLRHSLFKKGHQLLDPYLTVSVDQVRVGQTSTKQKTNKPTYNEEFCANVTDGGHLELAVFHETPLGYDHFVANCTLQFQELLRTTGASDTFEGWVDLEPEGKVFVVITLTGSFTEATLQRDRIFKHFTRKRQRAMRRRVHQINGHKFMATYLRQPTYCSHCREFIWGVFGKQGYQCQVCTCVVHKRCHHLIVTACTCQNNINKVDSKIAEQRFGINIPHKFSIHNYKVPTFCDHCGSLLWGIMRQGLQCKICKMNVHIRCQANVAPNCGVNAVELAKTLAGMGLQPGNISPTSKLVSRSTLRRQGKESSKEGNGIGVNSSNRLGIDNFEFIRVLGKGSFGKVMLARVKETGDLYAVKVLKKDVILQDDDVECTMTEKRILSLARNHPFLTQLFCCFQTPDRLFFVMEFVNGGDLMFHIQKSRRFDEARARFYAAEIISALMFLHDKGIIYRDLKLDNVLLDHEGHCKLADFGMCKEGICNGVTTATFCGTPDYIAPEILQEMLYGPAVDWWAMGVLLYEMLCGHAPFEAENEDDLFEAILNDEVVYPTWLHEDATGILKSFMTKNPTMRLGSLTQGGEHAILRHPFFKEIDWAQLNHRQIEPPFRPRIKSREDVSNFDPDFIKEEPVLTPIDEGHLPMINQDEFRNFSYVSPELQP

C[C@@H]1CN(c2cc(-c3n[nH]c4ccc(OC5(C)CC5)cc34)ncn2)C[C@H](C)O1 [MLi-2]
inactive: [1] 5.61% | [2] -0.139% | [3] 19.7% | [4] -1.94% | [5] 6.4% | [6] 4.97% | [7] 6.06% | [8] 16% | [9] 9%
